Test results taken from patent US20200190210A1, “NEW TARGET FOR TREATING CANCER” (TONGJI UNIVERSITY SUZHOU INSTITUTE BIOMEDICAL RESEARCH …, priority 2017, published 2020).

Key:
[1] = biological target: T1, interaction of TM4SF1 and DDR1 (Homo sapiens, UniProt P30408); assay: Co-immunoprecipitation / Western Blotting of TM4SF1 and DDR1 co-overexpressed in 293FT cells, Collagen I stimulated; type: cell-based; settings: 293FT cells co-overexpressing TM4SF1 and DDR1, peptide overexpressed in 293FT cells and purified, Collagen I 10 μg/ml, 6 hours, FIG. 9
T1 construct: expressed in transfected cells; host or cells: 293FT cells
T1 sequence (P30408 1-202): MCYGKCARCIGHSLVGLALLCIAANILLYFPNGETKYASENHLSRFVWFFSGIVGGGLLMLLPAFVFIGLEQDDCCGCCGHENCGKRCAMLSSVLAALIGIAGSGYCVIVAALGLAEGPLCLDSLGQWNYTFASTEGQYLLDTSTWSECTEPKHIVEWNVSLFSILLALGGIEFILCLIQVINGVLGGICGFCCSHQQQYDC
Description: 293FT cells were cultured in DMEM-HG medium and digested with trypsin. The cells were counted and seeded at a density of 1×10^6 cells per dish in 6 cm (diameter) culture dish. The next day, 700 μl of serum-free DMEM-HG medium was respectively added to two centrifuge tubes. 10 μl of P-Pei transfection reagent was added to the first centrifuge tube. 1 μg PQCXIP-hTM4SF1 plasmid and 1 μg PQCXIN-hDDR1 plasmid were added to the second centrifuge tube and mixed well. The resultant from the second centrifuge tube was added to the first centrifuge tube and incubated for 20 min to obtain the transfection mixture. The culture medium of the 293FT cells seeded the day before was removed, and the transfection mixture above was added to the culture dish and incubated for 6 hours. Fresh medium was added to continue the culture. 48 hours after the transfection, the medium was removed, 2 ml of serum-free DMEM-HG medium containing a certain concentration of FC17-7 antibody obtained in Example 1 or IgG (as a negative control) was added. After incubating the culture dish at 37° C. for 5 minutes, Collagen I was added to the culture dish to a final concentration of 10 μg/ml. The cells were cultured for 6 hours and then collected. […] After the elution, the mixture was centrifuged at 3,000 rpm for 2 min to collect the supernatant, and the protein expression was detected by Western Blotting. […]

[2] = system: MDAMB231-BoM-1833-TGL cells; assay: Breast cancer metastasis mouse model (ventricular injection of tumor cells, in vivo imaging, survival); settings: peptide injected from Day -1 every other day; for metastasis of breast cancer, peptide: mice, IgG negative control, FIGS. 11 and 12
Description: The day before the injection of tumor cells into mice was recorded as Day −1 of the experiment. On Day −1, the mice were fasted for 4 hours, injected with the desired concentration of FC17-7 antibody obtained in Example 1 or IgG (as a negative control), and given food after 2 hours. After the first injection, the mice were injected with antibodies every three days. On Day 0 of the experiment, MDAMB231-BoM-1833-TGL cells were blocked with antibodies according to the method of Example 4. After 6 hours, the cells were digested. The medium was removed, and the cells were washed with PBS once and resuspended in PBS to a concentration of 1×10^6 cells/ml. Then, mice were injected with 1×10^5 tumor cells/100 μl by ventricular injection to establish a mouse metastasis model. Every other week, the mice were subjected to in vivo imaging to record the fluorescence signal data. By establishing a breast cancer metastasis model, periodically administration of the monoclonal antibody FC17-7 prepared in Example 1 was performed in mice.
The day before the injection of tumor cells into mice was recorded as Day −1 of the experiment. On Day −1, the mice were fasted for 4 hours, and injected with the desired concentration of the extracellular loop 1 peptide of TM4SF1 prepared in Example 3 or IgG (as negative control), and given food after 2 hours. After the first injection of the peptide, the mice were injected with the peptide every other day. On Day 0 of the experiment, MDAMB231-BoM-1833-TGL cells were blocked with the peptide according to the method of Example 9. After 6 hours, the cells were digested. The medium was removed, and the cells were washed with PBS once, and resuspended in PBS to a concentration of 1×10^6 cells/ml. For the method of establishing a breast cancer metastasis mouse model, refer to the method in Example 7.

[3] = system: p-STAT3 (TM4SF1 associated non-classical DDR1 signaling pathway); assay: Western Blotting of p-STAT3, TM4SF1 associated non-classical DDR1 signaling pathway, in cells overexpressing TM4SF1 and DDR1; type: cell-based, human; settings: Collagen I 10 μg/ml, 12 hours, FIG. 10; for inhibition of P-STAT3 / downstream signal transduction (Western Blotting), peptide: cells overexpressing TM4SF1 and DDR1, PBS negative control
Description: The transfection method has been described in Example 4. 48 hours after transfection, the medium was removed, 2 ml of serum-free DMEM-HG medium containing a certain concentration of FC17-7 antibody obtained in Example 1 or IgG (as a negative control) was added. After incubating the culture dish at 37° C. for 5 minutes, Collagen I was added to the culture dish to a final concentration of 10 μg/ml and cultured for 12 hours. The cells were collected and lysed with IP-RIPA buffer in a refrigerator at 4° C. for 1 h. The lysate was sonicated twice (15 s 30% power), then centrifuged at 12,000 rpm for 30 min. The supernatant was sampled to determine the protein concentration, and the protein concentration of each sample was adjusted to be the same. The sample was subjected to SDS-PAGE electrophoresis, and the proteins were transferred to a membrane by conventional way in Western Blotting, and then stained with the antibody.
The transfection method has been described in Example 4. 48 hours after transfection, the medium was removed, 2 ml of serum-free DMEM-HG medium containing a certain concentration of the extracellular loop 1 peptide of TM4SF1 prepared in Example 3 or PBS (as a negative control) was added. After incubating the culture dish at 37° C. for 5 minutes, Collagen I was added to the culture dish to a final concentration of 10 μg/ml. The cells were cultured for 12 hours and then collected. The cells were lysed with IP-RIPA buffer in a refrigerator at 4° C. for 1 h. The lysate was sonicated twice (15 s 30% power), and then centrifuged at 12,000 rpm for 30 min. The supernatant was sampled to determine the protein concentration, and the protein concentration of each sample was adjusted to be the same. The sample was subjected to SDS-PAGE electrophoresis, and the proteins were transferred to a membrane by a conventional way used in Western Blotting, and then stained with antibody.

[4] = listed as small extracellular loop 1 peptide of TM4SF1

## FPNGETKYASENHLSRC [extracellular loop 1 peptide of TM4SF1]
[1]
  disruption of the interaction between TM4SF1 and DDR1 (co-immunoprecipitation), peptide: significantly disrupt the interaction between TM4SF1 and DDR1
[1]; [4]
  disruption of the interaction between TM4SF1 and DDR1 (co-immunoprecipitation), peptide: disrupts the interaction between TM4SF1 and DDR1
[2]
  metastasis of breast cancer, peptide: significantly inhibit the metastasis of breast cancer
[2]; [4]
  metastasis of breast cancer, peptide: significantly inhibits metastasis of breast cancer
[2]; FIG. 13
  survival time of the mice, peptide: prolong the survival time of the mice
[2]; FIG. 13, listed as small extracellular loop 1 peptide of TM4SF1
  survival time of the mice, peptide: prolongs the survival mice
[3]
  inhibition of P-STAT3 / downstream signal transduction (Western Blotting), peptide: began to inhibit P-STAT3
[3]; [4]
  inhibition of P-STAT3 / downstream signal transduction (Western Blotting), peptide: inhibits downstream signal transduction
[3]; different concentrations of peptide, dose-dependent
  concentration at which the peptide began to inhibit P-STAT3: 9 µg/mL
